Reference: patent US20240327412A1, “FACTOR XIIA INHIBITORS” (KALVISTA PHARMACEUTICALS LIMITED, priority 2021, published 2024)

Target: T1, Human Factor XIIa (Homo sapiens, UniProt P00748)
T1 construct: Proteolytic cleavage of FXII to heavy and light chains of FXIIa dramatically increases catalytic activity; purchased Enzyme Research Laboratories
T1 sequence (P00748 373-615 limits assumed): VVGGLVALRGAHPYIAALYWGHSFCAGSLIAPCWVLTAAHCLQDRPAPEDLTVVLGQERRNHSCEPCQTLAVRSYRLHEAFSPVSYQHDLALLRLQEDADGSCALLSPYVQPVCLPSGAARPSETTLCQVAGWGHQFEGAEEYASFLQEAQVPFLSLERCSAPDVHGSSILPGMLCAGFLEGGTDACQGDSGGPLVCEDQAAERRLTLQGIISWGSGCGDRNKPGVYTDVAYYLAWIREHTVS
T1 sequence (P00748 20-372 partner limits assumed): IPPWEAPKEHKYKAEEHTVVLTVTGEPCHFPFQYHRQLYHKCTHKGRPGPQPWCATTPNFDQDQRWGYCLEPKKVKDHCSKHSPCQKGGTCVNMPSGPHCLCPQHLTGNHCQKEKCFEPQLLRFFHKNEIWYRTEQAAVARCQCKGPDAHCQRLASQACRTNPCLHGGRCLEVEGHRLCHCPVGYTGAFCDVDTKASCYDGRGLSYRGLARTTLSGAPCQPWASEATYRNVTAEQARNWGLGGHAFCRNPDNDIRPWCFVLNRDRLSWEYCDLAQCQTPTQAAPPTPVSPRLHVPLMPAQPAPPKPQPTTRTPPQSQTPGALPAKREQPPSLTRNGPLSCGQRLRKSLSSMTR
Assay: Determination of FXIIa inhibition (fluorogenic substrate H-DPro-Phe-Arg-AFC, IC50 assay)
Type: biochemical
Settings: substrate at Km concentration, 25° C.; category scale; read-out: Human FXII IC50 (nm)
Method: In vitro inhibition of Factor XIIa was determined using an IC50 assay based on standard literature methods (see e.g Baeriswyl et al., ACS Chem. Biol., 2015, 10 (8) 1861; Bouckaert et al., European Journal of Medicinal Chemistry 110 (2016) 181). Human Factor XIIa (Enzyme Research Laboratories) was incubated at 25° C. with the fluorogenic substrate H-DPro-Phe-Arg-AFC (Peptide Protein Science) and various concentrations of the test compound. Protease activity was measured by monitoring the accumulation of liberated fluorescence from the substrate over 5 min at 25° C. The linear rate of fluorescence increase per minute was expressed as percentage (%) activity. The Km for the cleavage of the substrate by FXIIa was determined by standard transformation of the Michaelis-Menten equation. The compound inhibitor assays were performed at substrate Km concentration. IC50 values were calculated as the concentration of inhibitor giving 50% inhibition (IC50) of the uninhibited enzyme activity (100%).

Row | Compound | IC50 [nM]
1 | Nc1nccc2c(NCC34CC(COc5cc6nccn6cn5)(CO3)C4)cccc12 [Example 6623, N5-((4-((imidazo[1,2-c]pyrimidin-7-yloxy)methyl)-2-oxabicyclo[2.1.1]hexan-1-yl)methyl)isoquinoline-1,5-diamine] | 3000 to 10000
2 | Nc1nccc2c(NCC34CC(COc5ccc6c(c5)C(=O)NC6)(CO3)C4)cccc12 [Example 6642, 6-((1-(((1-aminoisoquinolin-5-yl)amino)methyl)-2-oxabicyclo[2.1.1]hexan-4-yl)methoxy)isoindolin-1-one] | 100 to 300
3 | c1cc2cc(NCC34CC(COc5ccn6ccnc6c5)(CCO3)C4)ccc2cn1 [Example 10958, N-((5-((imidazo[1,2-a]pyridin-7-yloxy)methyl)-2-oxabicyclo[3.1.1]heptan-1-yl)methyl)isoquinolin-6-amine] | 10000 to 40000
4 | Nc1nccc2c(NCC34CC(CN5C(=O)c6ccc(O)cc6C5=O)(CO3)C4)cccc12 [Example 6635, 2-((1-(((1-aminoisoquinolin-5-yl)amino)methyl)-2-oxabicyclo[2.1.1]hexan-4-yl)methyl)-5-hydroxyisoindoline-1,3-dione] | 10000 to 40000
5 | Cn1c(OCC23CCOC(CNc4cccc5c(N)nccc45)(C2)C3)cccc1=O [Example 10945, 6-((1-(((1-aminoisoquinolin-5-yl)amino)methyl)-2-oxabicyclo[3.1.1]heptan-5-yl)methoxy)-1-methylpyridin-2(1H)-one] | 3000 to 10000
6 | Nc1nccc2c(NCC34CC(COc5ccccc5N5CCCC5=O)(CO3)C4)cccc12 [Example 6654, 1-(2-((1-(((1-aminoisoquinolin-5-yl)amino)methyl)-2-oxabicyclo[2.1.1]hexan-4-yl)methoxy)phenyl)pyrrolidin-2-one] | 10000 to 40000
7 | Cc1ccnc(OCC23CCOC(CNc4cccc5c(N)nccc45)(C2)C3)c1 [Example 10955, N5-((5-(((4-methylpyridin-2-yl)oxy)methyl)-2-oxabicyclo[3.1.1]heptan-1-yl)methyl)isoquinoline-1,5-diamine] | 1000 to 3000
8 | CC(C)c1cc(OCC23CCOC(CNc4cccc5c(N)nccc45)(C2)C3)ncn1 [Example 10948, N5-((5-(((6-isopropylpyrimidin-4-yl)oxy)methyl)-2-oxabicyclo[3.1.1]heptan-1-yl)methyl)isoquinoline-1,5-diamine] | 1000 to 3000
9 | Cc1cnc2ccc(OCC34COC(CNc5ccnc(N)c5)(C3)C4)cn12 [Example 6660, N4-((4-(((3-methylimidazo[1,2-a]pyridin-6-yl)oxy)methyl)-2-oxabicyclo[2.1.1]hexan-1-yl)methyl)pyridine-2,4-diamine] | 3000 to 10000
10 | CC(C)c1cc(OCC23COC(CNc4cccc5c(N)nccc45)(C2)C3)cn2ccnc12 [Example 6641, N5-((4-(((8-isopropylimidazo[1,2-a]pyridin-6-yl)oxy)methyl)-2-oxabicyclo[2.1.1]hexan-1-yl)methyl)isoquinoline-1,5-diamine] | 100 to 300
11 | Cc1cn2cc(OCC34COC(CNc5cccc6c(N)nccc56)(C3)C4)ccc2n1 [Example 6633, N5-((4-(((2-methylimidazo[1,2-a]pyridin-6-yl)oxy)methyl)-2-oxabicyclo[2.1.1]hexan-1-yl)methyl)isoquinoline-1,5-diamine] | 100 to 300

Second part, the molecule after the results:

Row | IC50 [nM] | Compound
12 | 100 to 300 | CC(=O)N1CC2(CNc3cccc4c(N)nccc34)CC1(COc1ccn(C)c(=O)c1)C2 [Example 13003, 4-((2-acetyl-4-(((1-aminoisoquinolin-5-yl)amino)methyl)-2-azabicyclo[2.1.1]hexan-1-yl)methoxy)-1-methylpyridin-2(1H)-one]
13 | 300 to 1000 | Cn1ccc(OCC23CNC(CNc4ccc5c(N)nccc5c4)(C2)C3)cc1=O [Example 12011, 4-((1-(((1-aminoisoquinolin-6-yl)amino)methyl)-2-azabicyclo[2.1.1]hexan-4-yl)methoxy)-1-methylpyridin-2(1H)-one]
14 | 10 to 100 | Cn1ccc(OCC23CN(C(=O)NCc4ccccc4F)C(CNc4cccc5c(N)nccc45)(C2)C3)cc1=O [Example 12058, 1-(((1-aminoisoquinolin-5-yl)amino)methyl)-N-(2-fluorobenzyl)-4-(((1-methyl-2-oxo-1,2-dihydropyridin-4-yl)oxy)methyl)-2-azabicyclo[2.1.1]hexane-2-carboxamide]
15 | 10 to 100 | COc1ccccc1CNC(=O)N1CC2(COc3ccn(C)c(=O)c3)CC1(CNc1cccc3c(N)nccc13)C2 [Example 12067, 1-(((1-aminoisoquinolin-5-yl)amino)methyl)-N-(2-methoxybenzyl)-4-(((1-methyl-2-oxo-1,2-dihydropyridin-4-yl)oxy)methyl)-2-azabicyclo[2.1.1]hexane-2-carboxamide]
16 | 300 to 1000 | CN(Cc1ccccc1)C(=O)N1CC2(CNc3cccc4c(N)nccc34)CC1(COc1ccn(C)c(=O)c1)C2 [Example 13011, 4-(((1-aminoisoquinolin-5-yl)amino)methyl)-N-benzyl-N-methyl-1-(((1-methyl-2-oxo-1,2-dihydropyridin-4-yl)oxy)methyl)-2-azabicyclo[2.1.1]hexane-2-carboxamide]
17 | 10 to 100 | Cn1ccc(OCC23CN(C(=O)CCc4cccc(C(=O)O)c4)C(CNc4cccc5c(N)nccc45)(C2)C3)cc1=O [Example 12051, 3-(3-(1-(((1-aminoisoquinolin-5-yl)amino)methyl)-4-(((1-methyl-2-oxo-1,2-dihydropyridin-4-yl)oxy)methyl)-2-azabicyclo[2.1.1]hexan-2-yl)-3-oxopropyl)benzoic acid]
18 | 1000 to 3000 | Nc1nccc2c(NCC34CC(COc5ccn6nncc6c5)(CCO3)C4)cccc12 [Example 10969, N5-((5-(([1,2,3]triazolo[1,5-a]pyridin-5-yloxy)methyl)-2-oxabicyclo[3.1.1]heptan-1-yl)methyl)isoquinoline-1,5-diamine]
19 | 10 to 100 | Cn1ccc(OCC23CN(C(=O)NCc4ccc5occc5c4)C(CNc4cccc5c(N)nccc45)(C2)C3)cc1=O [Example 12070, 1-(((1-aminoisoquinolin-5-yl)amino)methyl)-N-(benzofuran-5-ylmethyl)-4-(((1-methyl-2-oxo-1,2-dihydropyridin-4-yl)oxy)methyl)-2-azabicyclo[2.1.1]hexane-2-carboxamide]
20 | 100 to 300 | Cn1ccc(OCC23CC(CNc4cccc5c(N)nccc45)(CN2CCCc2ccccc2)C3)cc1=O [Example 13015, 4-((4-(((1-aminoisoquinolin-5-yl)amino)methyl)-2-(3-phenylpropyl)-2-azabicyclo[2.1.1]hexan-1-yl)methoxy)-1-methylpyridin-2(1H)-one]
21 | 100 to 300 | Cn1cc(COC(=O)N2CC3(COc4ccn(C)c(=O)c4)CC2(CNc2cccc4c(N)nccc24)C3)cn1 [Example 12026, (1-methyl-1H-pyrazol-4-yl)methyl 1-(((1-aminoisoquinolin-5-yl)amino)methyl)-4-(((1-methyl-2-oxo-1,2-dihydropyridin-4-yl)oxy)methyl)-2-azabicyclo[2.1.1]hexane-2-carboxylate]
22 | 10 to 100 | Cn1ccc(OCC23CN(S(=O)(=O)CCc4ccccc4)C(CNc4cccc5c(N)nccc45)(C2)C3)cc1=O [Example 12014, 4-[[1-[[(1-aminoisoquinolin-5-yl)amino]methyl]-2-(2-phenylethylsulfonyl)-2-azabicyclo[2.1.1]hexan-4-yl]methoxy]-1-methylpyridin-2-one]
23 | 1000 to 3000 | Cn1ccc(OCC23CN(C(=O)OCc4ccccc4)C(CNc4ccnc5[nH]c(Cl)cc45)(C2)C3)cc1=O [Example 12025, benzyl 1-(((2-chloro-1H-pyrrolo[2,3-b]pyridin-4-yl)amino)methyl)-4-(((1-methyl-2-oxo-1,2-dihydropyridin-4-yl)oxy)methyl)-2-azabicyclo[2.1.1]hexane-2-carboxylate]
24 | 10 to 100 | COc1ccccc1NC(=O)N1CC2(COc3ccn(C)c(=O)c3)CC1(CNc1cccc3c(N)nccc13)C2 [Example 12059, 1-(((1-aminoisoquinolin-5-yl)amino)methyl)-N-(2-methoxyphenyl)-4-(((1-methyl-2-oxo-1,2-dihydropyridin-4-yl)oxy)methyl)-2-azabicyclo[2.1.1]hexane-2-carboxamide]
25 | 10 to 100 | Cn1ccc(OCC23CN(C(=O)CCc4cccc(C(F)(F)F)c4)C(CNc4cccc5c(N)nccc45)(C2)C3)cc1=O [Example 12050, 4-((1-(((1-aminoisoquinolin-5-yl)amino)methyl)-2-(3-(3-(trifluoromethyl)phenyl)propanoyl)-2-azabicyclo[2.1.1]hexan-4-yl)methoxy)-1-methylpyridin-2(1H)-one]
